Patent US20250215014A1, “KINASE INHIBITORS, PREPARATION METHODS AND USES THEREOF” (InventisBio Co., Ltd., priority 2022, published 2025)

Key:
PBMC = assay: Human PBMC IL-2 Assay; type: cell-based; conditions: anti-CD3/CD28 antibody, IL-2 level
Description: PBMC (frozen) obtained from health donor were thawed in RPMI-1640 medium with 10% o FBS, incubated for 4 h at 37° C. In a 96-well plate, 200,000 PBMC cells in 160 uL were added to each assay well. Ten microliter compound solution (10 uM to 0.6 nM, 8 points with 4-fold dilution) were added to cells in each well and incubated for 60 minutes at 37° C. Then 30 uL anti-CD3/CD28 antibody (Catalog #10991, Stemcell) were added to cells and incubated overnight at 37° C. After the incubation, 16 uL supernatants were transferred into a new 384-well white assay plate for cytokine analysis. IL-2 level was quantified using Human IL-2 kit (Catalog #62HIL02PEG, Cisbio) as described in the manufacturer manual.
Activation at […] activity (EC50) was calculated with the equation: […]
(§1) X is log of compound concentration, Y is the IL-2 concentration, increasing as X increases.

DGKa = DGKa (Homo sapiens (Human), UniProt P23743); assay: DGK ADP-Glo Kinase Assay (DGKa); type: biochemical; conditions: 10 nM DGKa, 15 uM ATP
Description: (§2) Luminescence was recorded using an Tecan SPARK microplate reader.

DGKz = DGKz (Homo sapiens (Human), UniProt Q13574); assay: DGK ADP-Glo Kinase Assay (DGKz); type: biochemical; conditions: 5 nM DGKz, 15 uM ATP
Description: as §2

Jurkat cells = assay: Jurkat IL-2 Assay; type: cell-based; conditions: Homo sapiens, anti-CD3/CD28 antibody, IL-2 level
Description: Jurkat cells (ATCC) were cultured in RPMI-1640 medium supplemented with 10% FBS. In a 96-well plate, 250,000 cells in 130 uL were added to each assay well. Ten microliter compound solution (5 uM to 2.3 nM, 8 points with 3-fold dilution) were added to cells in each well and incubated for 60 minutes at 37° C. Then 10 uL anti-CD3/CD28 antibody (Catalog #10991, Stemcell) were added and incubated overnight at 37° C. After the incubation, 16 uL supernatants were transferred into a new 384-well white assay plate for cytokine analysis. IL-2 was quantified using Human IL-2 kit (Catalog #62HIL02PEG, Cisbio) as described in the manufacturer manual.
as §1

Sequence of DGKz (Q13574 whole entry): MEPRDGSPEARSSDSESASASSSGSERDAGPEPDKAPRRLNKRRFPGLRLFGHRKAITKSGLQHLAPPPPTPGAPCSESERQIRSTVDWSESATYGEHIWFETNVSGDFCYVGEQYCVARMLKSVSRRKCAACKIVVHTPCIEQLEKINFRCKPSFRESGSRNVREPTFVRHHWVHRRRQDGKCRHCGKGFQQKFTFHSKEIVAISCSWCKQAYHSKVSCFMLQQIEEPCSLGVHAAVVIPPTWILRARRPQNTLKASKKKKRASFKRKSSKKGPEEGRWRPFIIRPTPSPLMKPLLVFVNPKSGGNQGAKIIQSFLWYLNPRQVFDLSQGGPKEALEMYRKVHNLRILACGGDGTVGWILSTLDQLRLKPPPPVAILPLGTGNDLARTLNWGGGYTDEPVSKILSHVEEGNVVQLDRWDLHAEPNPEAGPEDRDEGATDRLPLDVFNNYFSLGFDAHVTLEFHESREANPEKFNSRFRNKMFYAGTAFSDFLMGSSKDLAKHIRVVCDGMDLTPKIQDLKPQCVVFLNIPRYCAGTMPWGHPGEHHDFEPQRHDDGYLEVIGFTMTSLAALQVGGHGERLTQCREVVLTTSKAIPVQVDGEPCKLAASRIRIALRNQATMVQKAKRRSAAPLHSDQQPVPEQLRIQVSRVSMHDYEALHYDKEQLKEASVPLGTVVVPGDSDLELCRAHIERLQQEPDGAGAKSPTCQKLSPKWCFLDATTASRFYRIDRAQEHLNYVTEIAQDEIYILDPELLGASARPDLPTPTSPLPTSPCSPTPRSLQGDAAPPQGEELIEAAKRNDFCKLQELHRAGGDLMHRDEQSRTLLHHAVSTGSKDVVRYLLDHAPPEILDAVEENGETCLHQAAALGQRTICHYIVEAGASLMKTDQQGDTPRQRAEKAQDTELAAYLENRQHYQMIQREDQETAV
Sequence of DGKa (P23743 whole entry): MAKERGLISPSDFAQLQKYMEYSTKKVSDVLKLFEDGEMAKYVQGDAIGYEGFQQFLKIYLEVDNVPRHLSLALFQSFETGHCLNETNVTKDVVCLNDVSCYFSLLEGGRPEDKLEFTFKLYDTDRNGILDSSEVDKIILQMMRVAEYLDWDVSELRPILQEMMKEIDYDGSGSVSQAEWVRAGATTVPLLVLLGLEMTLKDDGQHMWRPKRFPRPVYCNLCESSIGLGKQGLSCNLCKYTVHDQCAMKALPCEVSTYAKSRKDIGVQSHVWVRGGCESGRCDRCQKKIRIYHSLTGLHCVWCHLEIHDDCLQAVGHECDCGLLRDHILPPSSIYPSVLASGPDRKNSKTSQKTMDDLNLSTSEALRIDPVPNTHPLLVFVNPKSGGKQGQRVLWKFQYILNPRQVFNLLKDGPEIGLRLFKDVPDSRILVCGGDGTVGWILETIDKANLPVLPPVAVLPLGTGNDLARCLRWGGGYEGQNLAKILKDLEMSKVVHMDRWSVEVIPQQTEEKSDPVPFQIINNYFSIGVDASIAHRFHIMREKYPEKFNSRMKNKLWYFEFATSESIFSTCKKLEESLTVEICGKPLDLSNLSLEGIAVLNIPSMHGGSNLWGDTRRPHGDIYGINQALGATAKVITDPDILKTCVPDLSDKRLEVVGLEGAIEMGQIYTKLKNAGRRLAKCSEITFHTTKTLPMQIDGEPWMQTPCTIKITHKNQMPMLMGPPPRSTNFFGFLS

SMILES	EC50 (PBMC) [nM]	IC50 (DGKa) [nM]	IC50 (DGKz) [nM]	EC50 (Jurkat cells) [nM]
CC[C@H]1C[C@@H](Oc2ccc(OC(F)(F)F)cc2)CCN1c1nc(=O)n(C)c2ccc(C#N)nc12 [Compound 17]	< 500	< 100	100 to 1000	–
CC[C@@H]1C[C@@H](Oc2ccc(OC(F)(F)F)cc2)CCN1c1nc(=O)n(C)c2ccc(C#N)nc12 (stereo in doubt) [Compound 19]	500 to 1000	> 1000	< 100	–
C[C@H]1CC2(CCN1c1nc(=O)n(C)c3ccc(C#N)nc13)CC(c1ccc(OC(F)(F)F)cc1)=NO2 (some centres unmarked) [Compound 50]	–	–	–	< 500
Cc1ccc2oc(C3(C)CCN(c4c(C#N)c(=O)n(C)c5ccc(C#N)nc45)CC3)nc2c1 [Compound 7]	< 500	–	–	–
Cn1c(=O)nc(N2CCC(Oc3ccc(OC(F)(F)F)cc3)CC2)c2c1ccc1nncn12 [Compound 21]	–	–	–	> 1000
Cn1c(=O)nc(N2CCC3(CC2)CC(c2ccccc2C(F)(F)F)=NO3)c2nc(C#N)ccc21 [Compound 48]	> 1000	–	–	–
Cc1ccc2oc(C3CCN(c4nc(=O)n(C)c5ccc6nncn6c45)CC3)nc2c1 [Compound 22]	–	< 100	> 1000	–
CC[C@H]1CN([C@H](CC)c2cccc(S(F)(F)(F)(F)F)c2)[C@H](CC)CN1c1nc(=O)n(C)c2ccc(C#N)nc12 (stereo in doubt) [Compound 55]	–	< 100	< 100	–
Cc1ccc2oc(C3CCN(c4nc(=O)n(C)c5cc(O[C@@H]6CCOC6)c(Cl)cc45)CC3)nc2c1 [Compound 32]	–	< 100	> 1000	–
CC[C@H]1CN([C@@H](c2ccc(S(F)(F)(F)(F)F)cc2)c2nc(C3CC3)cs2)[C@H](CC)CN1c1nc(=O)n(C)c2ccc(C#N)nc12 [Compound 99]	–	< 100	< 100	–
CC[C@H]1C[C@@H](c2nc3cc(C)ccc3o2)CCN1c1nc(=O)n(C)c2cc(O[C@H]3CCOC3)c(Cl)cc12 [Compound 93]	–	< 100	100 to 1000	–
Cn1c(=O)nc(N2CCC3(CC2)COC(c2ccc(OC(F)(F)F)cc2)=N3)c2nc(Cl)ccc21 [Compound 37]	–	< 100	100 to 1000	–
CC[C@@H]1CN(c2nc3nncn3c3ccc(C#N)nc23)[C@@H](C)CN1[C@@H](CC)c1ccc(C(F)(F)F)cc1 (single isomer, unassigned) [Compound 81]	–	< 100	< 100	–
CC[C@H]1CN(C(COC)c2ccc(S(F)(F)(F)(F)F)cc2)[C@H](CC)CN1c1nc(=O)n(C)c2ccc(C#N)nc12 (some centres unmarked) [Compound 78]	–	< 100	< 100	–
CC[C@H]1CN([C@@H](CC)c2ccc(C(F)(F)F)cc2)[C@H](CC)CN1c1nc2nncn2c2ccc(C#N)nc12 (single isomer, unassigned) [Compound 109]	–	< 100	< 100	–
Cn1c(=O)nc(N2CCCc3c(C#CC4CC4)cccc32)c2nc(C#N)ccc21 [Compound 39]	–	< 100	> 1000	–
Cn1c(=O)c(C(N)=O)c(N2CCC3(CCN(c4ccc(OC(F)(F)F)cc4)C3)CC2)c2nc(C#N)ccc21 [Compound 6]	> 1000	100 to 1000	100 to 1000	–
CC[C@H]1CN([C@@H](CC)c2ccc(SC(F)(F)F)cc2)[C@H](CC)CN1c1nc2nncn2c2ccc(C#N)nc12 (single isomer, unassigned) [Compound 69]	–	< 100	100 to 1000	–
CCC(c1ccc(C(F)(F)F)cc1)N1CCN(c2nc3nncn3c3ccc(C#N)nc23)C(CC)C1 (centres unmarked) [Compound 102]	–	< 100	> 1000	–
CC[C@@H]1CN(c2nc3nncn3c3ccc(C#N)nc23)[C@@H](CC)CN1C(=O)Cc1ccc(C(F)(F)F)cc1 [Compound 85]	–	< 100	100 to 1000	–
CC[C@H]1CN([C@H]2CCCCc3cc(C(F)(F)F)ccc32)[C@H](CC)CN1c1nc(=O)n(C)c2ccc(C#N)nc12 [Compound 44]	–	< 100	100 to 1000	–
Cn1c(=O)nc(N2CCC(Oc3ccc(OC(F)(F)F)cc3)CC2)c2nc(C#N)ccc21 [Compound 5]	500 to 1000	100 to 1000	100 to 1000	–
CC[C@H]1CN([C@H](CC)c2ccc(C(F)(F)F)cc2)[C@H](CC)CN1c1nc2nncn2c2ccc(C#N)nc12 (single isomer, unassigned) [Compound 110]	–	< 100	100 to 1000	–

SMILES	EC50 (PBMC) [nM]	IC50 (DGKa) [nM]	IC50 (DGKz) [nM]	EC50 (Jurkat cells) [nM]
Cn1c(=O)nc(N2CCC3(CC2)CC(c2ccc(OC(F)(F)F)cc2)=NO3)c2nc(C#N)ccc21 [Compound 31]	–	< 100	< 100	–
CC[C@@H]1CN(c2nc(=O)n(C)c3ccc(C#N)nc23)[C@@H](C)CN1[C@@H](CC)c1ccc(S(F)(F)(F)(F)F)cc1 (stereo in doubt) [Compound 60]	–	< 100	< 100	–
CC[C@H]1CN([C@@H](CC)c2ccc(C(F)(F)F)cc2)[C@H](CC)CN1c1nc2nncn2c2ccc(C#N)nc12 (single isomer, unassigned) [Compound 34]	–	< 100	< 100	–
CC[C@@H]1CN(c2nc(=O)n(C)c3ccc(C#N)nc23)[C@@H](C)CN1[C@@H](c1ccc(F)cc1)c1ccc(SC(F)(F)F)cn1 [Compound 72]	–	< 100	< 100	–
Cn1c(=O)nc(N2CCC3(CCN(c4ccc(OC(F)(F)F)cc4)C3)CC2)c2nc(C#N)ccc21 [Compound 8]	–	100 to 1000	100 to 1000	–
CC[C@H]1CN([C@H](CC)c2ccc(C(F)(F)F)nc2)[C@H](CC)CN1c1nc2nncn2c2ccc(C#N)nc12 (stereo in doubt) [Compound 112]	–	< 100	100 to 1000	–
CC[C@H]1CN([C@@H](CC)c2ccc(S(F)(F)(F)(F)F)cc2)[C@H](CC)CN1c1nc(=O)n2c3c(cc(C#N)nc13)OCC2 (stereo in doubt) [Compound 83]	–	< 100	100 to 1000	–
CC[C@H]1CN([C@H](C)c2ccc(S(F)(F)(F)(F)F)cc2)[C@H](CC)CN1c1nc(=O)n(C)c2ccc(C#N)nc12 (stereo in doubt) [Compound 63]	–	< 100	100 to 1000	–
CC[C@H]1CN([C@@H](CC)c2nc(C3CC3)no2)[C@H](CC)CN1c1nc2nncn2c2ccc(C#N)nc12 [Compound 119]	–	< 100	< 100	–
CC[C@@H]1CN(c2nc3nncn3c3ccc(C#N)nc23)[C@@H](CC)CN1C(=O)c1ccc(C(F)(F)F)cc1 [Compound 84]	–	< 100	> 1000	–
CC[C@@H]1CN(c2nc3nncn3c3ccc(C#N)nc23)[C@@H](C)CN1[C@H](CC)c1ccc(C(F)(F)F)cc1 (stereo in doubt) [Compound 82]	–	< 100	100 to 1000	–
CC[C@@H]1C[C@H](c2nc3cc(C)ccc3o2)CCN1c1nc(=O)n(C)c2cc(O[C@@H]3CCOC3)c(Cl)cc12 [Compound 92]	–	100 to 1000	< 100	–
CC[C@@H]1CN2c3c(c(=O)n(C)c4ccc(C#N)nc34)OC[C@H]2CN1[C@H](CC)c1ccc(S(F)(F)(F)(F)F)cc1 [Compound 108]	–	< 100	100 to 1000	–
CC[C@@H]1CN2c3c(c(=O)n(C)c4ccc(C#N)nc34)OC[C@@H]2CN1[C@@H](CC)c1ccc(C(F)(F)F)cc1 [Compound 121]	–	< 100	> 1000	–
CC[C@H]1CN([C@H]2CCCCc3cc(C(F)(F)F)ccc32)[C@H](CC)CN1c1nc2nncn2c2ccc(C#N)nc12 [Compound 113]	–	< 100	100 to 1000	–
CC[C@H]1CN([C@@H]2CCCCc3cc(C(F)(F)F)ccc32)[C@H](CC)CN1c1nc2nncn2c2ccc(C#N)nc12 [Compound 114]	–	< 100	< 100	–
CC[C@@H]1CN2c3c(c(=O)n(C)c4ccc(C#N)nc34)OC[C@@H]2CN1[C@@H](CC)c1ccc(SC(F)(F)F)cc1 [Compound 123]	–	< 100	100 to 1000	–
N#Cc1ccc2c(n1)c(N1CCC3(CC1)CC(c1ccc(C(F)(F)F)cc1)=NO3)nc1nncn12 [Compound 53]	–	< 100	100 to 1000	–
CC[C@H]1CN([C@H](CC)c2ccc(OC)cc2F)[C@H](CC)CN1c1nc2nncn2c2ccc(C#N)nc12 (stereo in doubt) [Compound 116]	–	< 100	100 to 1000	–
CC[C@H]1CN([C@@H](CC)c2ccc(OC)cc2F)[C@H](CC)CN1c1nc2nncn2c2ccc(C#N)nc12 (stereo in doubt) [Compound 115]	–	< 100	< 100	–
Cc1ccccc1-n1cc(C2CCN(c3nc(=O)n(C)c4ccc(C#N)nc34)CC2)cn1 [Compound 12]	–	> 1000	> 1000	–
CC[C@@H]1C[C@@]2(CCN1c1nc(=O)n(C)c3ccc(C#N)nc13)CC(c1ccc(OC(F)(F)F)cc1)=NO2 (stereo in doubt) [Compound 75]	–	100 to 1000	100 to 1000	–
CC[C@@H]1CN2c3c(c(=O)n(C)c4ccc(C#N)nc34)OC[C@H]2CN1[C@@H](CC)c1ccc(C(F)(F)F)cc1 [Compound 107]	–	< 100	100 to 1000	–
